{
  "source": "patent US5817679A",
  "about": "“7-Azabicyclo[2.2.1]-heptane and -heptene derivatives as cholinergic receptor ligands” (priority 1994, dated 1998)",
  "key": {"[1]": {"target": "T1, acetylcholine nicotinic receptor (Rattus norvegicus, UniProt P09483+P12390)", "T1 construct": "rat cortex as the tissue substrate; from tissue; host or cells: rat cortex", "test": "Nicotinic receptor binding, [3H]-NMCI radioligand, rat cortex (Table 6)", "protocol": "Evaluation of Nicotinic Receptor Binding Activity\n7-Aza-bicyclo[2.2.1]-heptanes and -heptenes were evaluated for their ability to bind to the acetylcholine nicotinic receptor using a standard binding assay, e.g. X. Zhang and A. Nordberg, Arch. Pharmacol., 348, 28 (1993); R. E. Middleton and J. B. Cohen, Biochemistry, 30, 6987 (1991), with nicotine sulfate as the reference compound, rat cortex as the tissue substrate, and a [^3 H]-NMCI radioligand."}, "[2]": {"test": "Tail-flick assay in mice and rats (antinociception)", "type": "in vivo", "conditions": "for Tail-Flick Assay ED50 % Effect After 5 min. / Tail-Flick Assay ED50 % Effect After 60 min.: (mg/kg)", "protocol": "Tail-Flick Assay in Mice and Rats\nFemale CD-1 mice (20-25 g, Charles River Labs) and male CD rats (300-400 g, Charles River Labs) were housed in groups of two and five, respectively. Animals were given food and water ad libitum. Most studies were performed using groups of 5 animals per treatment unless otherwise noted.\nAntinociceptive effects (i.e., analgesia) of test compounds in mice and rats were measured by the tail-flick test using a tail-flick analgesia meter (EMDIE Instrument Co.). A maximum latency of 10 sec was imposed if no response occurred within that time. Antinociceptive activity, measured as % MPE, was calculated as [(test-control)/(10-control)×100)].\nDuration of compound and (-)-nicotine-induced antinociception was assessed in mice by measuring antinociception at 2, 5, 10, 20 min after compound (20 μg/kg, s.c.) or nicotine (5 mg/kg, s.c.).\nMice (7/group) or rats were pretreated i.v. (0.9% saline or antagonist, mecamylamine, hexamethonium, atropine, naloxone or yohimbine) 10 minutes before administration of compound or nicotine at different doses. A control response (1.5-4 sec) was determined for each animal before treatment and test latencies were assessed at 5 minutes after compound administration (5 ml/kg, s.c.) or 2 min after nicotine (5 ml/kg, s.c.)."}, "[3]": {"target": "T2, nicotinic cholinergic receptor (Rattus norvegicus, UniProt P09483+P12390)", "T2 construct": "A membrane fraction from rat brain cortex; tissue Harlan Laboratories; host or cells: rat brain cortex membranes", "test": "Competition with [3H](-)-cytisine for binding to rat cortex (brain) receptors (Tables 7, 8)", "conditions": "Table 8, [3H](-)-cytisine, rat brain cortex membranes; read-out: Nicotine Receptor IC50", "description": "Competition with Cytisine for Binding to Rat Cortex (Brain) Receptors\n[^3 H](-)-Cytisine is a nicotinic cholinergic receptor ligand that binds with high affinity to the a4b2 subtype receptor, the major subtype in rodent brain accounting for >90% of (-)-nicotine binding sites (Flores, et al., 1992; Whiting, et al., 1992). This nicotinic receptor subtype is most sensitive to (-)-nicotine compared to other receptor subtypes (Connolly, et al., 1992). Compounds that compete with cytisine for the nicotinic cholineric receptor are considered nicotine receptor agonists.\nA membrane fraction from rat brain cortex (Harlan Laboratories) was prepared using an adaptation of an established method (Pabreza, et al., 1991). Compound and [^3 H]-(-)-cytisine (New England Nuclear, 42 Ci/mmol) were mixed before addition of membrane (0.5 mg protein) and incubated in glass tubes for 75 minutes on ice; total assay volume was 0.24 ml. Parallel assays to determine nonspecific binding were incubated in the presence of 10 uM (-)-nicotine (Sigma). Bound radioactivity was isolated by vacuum filtration onto glass microfiber filters (Whatman, GF-B) using millipore tubs, followed by 3×4 ml buffer wash. Filters were prerinsed with 0.5% polyethyleneimine prior to sample filtration to reduce nonspecific binding. Bound radioactivity was quantitated by scintillation counting."}, "[4]": {"test": "Analgesic activity, Straub-Tail assay (Table 5)", "type": "in vivo"}, "[5]": {"test": "Analgesic activity, Straub-Tail assay (Table 5)", "type": "in vivo", "conditions": "for ED50: Straub-Tail assay", "description": "A wide variety of biological assays have been used to evaluate the ability of a compound to act as an analgesic. Any of these known assays can be used to evaluate the analgesic ability of the compounds disclosed herein. The Straub-tail reaction, which is characteristic of opiate alkaloids, has been used as an assay for opiate agonists and antagonists. The assay is described in detail in Br. J. of Pharmacol. 1969, 36, 225. Another accepted assay for analgesic activity is the hot plate analgesia assay, described in J. of Pharmacol. Exp. Therap. 1953, 107, 385. An assay for the evaluation of the ability of a compound to bind to an opiate receptor is described in Mol. Pharmacol. 1974, 10, 868.\nEvaluation of Analgesic Activity\nTable 5 provides the analgesic activity measured as ED50 (μg/Kg) for selected compounds disclosed herein, as determined using the Straub-Tail assay, as describe by J. Daly et al. J. Am. […] Chem. Soc. 1992, 114, 3475; T. Li, et al. Bioorganic and Medicinal Chemistry Letters 1993, 3, 2759."}, "[6]": {"system": "nicotinic cholinergic receptor", "conditions": "in words; cited from earlier work"}, "[7]": {"conditions": "opiate antagonist naloxone; cited from earlier work"}, "[8]": {"system": "opiate receptors", "conditions": "in words; cited from earlier work"}, "[9]": {"system": "a4b2 subtype receptor", "conditions": "in words; cited from earlier work"}, "[10]": {"conditions": "Straub-Tail assay, read-out: ED50"}},
  "data": [
    {"compound": "C[N+]1(C)C2CCC1C(c1ccc(Cl)nc1)C2", "note": "(stereo not shown)", "values": [
      {"measurement": "Inhibition %", "setting": "[1]; testing level 10^-5 M", "result": 104, "unit": "%"},
      {"measurement": "Inhibition %", "setting": "[1]; testing level 10^-7 M", "result": 100, "unit": "%"}
    ]},
    {"compound": "N=CN1C2CCC1C(c1ccc(Cl)nc1)C2", "note": "(stereo not shown)", "values": [
      {"measurement": "Inhibition %", "setting": "[1]; testing level 10^-7 M", "result": 104, "unit": "%"}
    ]},
    {"compound": "N=CN1C2CCC1C(c1cccnc1)C2", "note": "(stereo not shown)", "values": [
      {"measurement": "Inhibition %", "setting": "[1]; testing level 10^-7 M", "result": 103.9, "unit": "%"},
      {"measurement": "Inhibition %", "setting": "[1]; testing level 10^-8 M", "result": 71.3, "unit": "%"}
    ]},
    {"compound": "Cc1noc(C2CC3CCC2N3C)n1", "note": "(stereo not shown)", "values": [
      {"measurement": "ED50", "setting": "[2]; Mus musculus, sc, Table 8", "result": 0.23, "unit": "mg/kg"}
    ]},
    {"compound": "Cc1cc(C2CC3CCC2N3)on1", "note": "(stereo not shown)", "values": [
      {"measurement": "IC50", "setting": "[3]", "result": 630, "unit": "nM"}
    ]},
    {"compound": "Cc1cc(C2CC3CCC2N3C)on1", "note": "(stereo not shown)", "values": [
      {"measurement": "IC50", "setting": "[3]", "result": 24, "unit": "nM"}
    ]},
    {"compound": "CN1C2CCC1C(c1ccc3ccccc3n1)C2", "note": "(stereo not shown)", "values": [
      {"measurement": "IC50", "setting": "[3]", "result": 77, "unit": "nM"}
    ]},
    {"compound": "c1ccc2nc(C3CC4CCC3N4)ccc2c1", "note": "(stereo not shown)", "values": [
      {"measurement": "IC50", "setting": "[3]", "result": 7, "unit": "nM"}
    ]},
    {"compound": "CN1[C@H]2CC[C@@H]1[C@@H](c1ccc(Cl)nc1)C2", "note": "(relative stereo)", "values": [
      {"measurement": "ED50", "setting": "[4]; [10]", "result": "< 0.01", "unit": "mg/kg"}
    ]},
    {"compound": "COc1ccc([C@H]2C[C@@H]3CC[C@H]2N3)cn1", "note": "(relative stereo)", "values": [
      {"measurement": "ED50", "setting": "[4]; [10]", "result": 0.75, "unit": "mg/kg"}
    ]},
    {"compound": "Clc1ccc([C@H]2C[C@@H]3CC[C@H]2N3CC2CC2)cn1", "note": "(relative stereo)", "values": [
      {"measurement": "effect in Straub-Tail assay", "setting": "[5]; @ 1000 μg/Kg", "result": 100, "unit": "%"}
    ]},
    {"compound": "Clc1ccc([C@H]2C[C@@H]3CC[C@H]2N3CCc2ccccc2)cn1", "note": "(relative stereo)", "values": [
      {"measurement": "ED50", "setting": "[4]; [10]", "result": "< 1", "unit": "mg/kg"}
    ]},
    {"compound": "c1cncc([C@H]2C[C@@H]3CC[C@H]2N3)c1", "note": "(relative stereo)", "values": [
      {"measurement": "ED50", "setting": "[4]; [10]", "result": 0.25, "unit": "mg/kg"}
    ]},
    {"compound": "Clc1ccc([C@H]2C[C@@H]3C=C[C@H]2N3)cn1", "note": "(relative stereo)", "values": [
      {"measurement": "ED50", "setting": "[4]; [10]", "result": "< 1", "unit": "mg/kg"}
    ]},
    {"compound": "C[N+]1(C)[C@H]2CC[C@@H]1[C@@H](c1ccc(Cl)nc1)C2", "note": "(relative stereo)", "values": [
      {"measurement": "ED50", "setting": "[4]; [10]", "result": "0.1 to 0.2", "unit": "mg/kg"}
    ]},
    {"compound": "Fc1ccc([C@H]2C[C@@H]3CC[C@H]2N3)cn1", "note": "(relative stereo)", "values": [
      {"measurement": "ED50", "setting": "[4]; [10]", "result": "~0.05", "unit": "mg/kg"}
    ]},
    {"compound": "ClCCN1[C@H]2CC[C@@H]1[C@@H](c1ccc(Cl)nc1)C2", "note": "(relative stereo)", "values": [
      {"measurement": "ED50", "setting": "[4]", "result": "~0.1", "unit": "mg/kg"}
    ]},
    {"compound": "N=CN1[C@H]2CC[C@@H]1[C@@H](c1ccc(Cl)nc1)C2", "note": "(relative stereo)", "values": [
      {"measurement": "effect in Straub-Tail assay", "setting": "[5]; @ 100 (μg/Kg per column head)", "result": 99, "unit": "%"}
    ]},
    {"compound": "CC(C)(C)Oc1ccc([C@H]2C[C@@H]3CC[C@H]2N3)cn1", "note": "(relative stereo)", "values": [
      {"measurement": "ED50", "setting": "[4]; [10]", "result": "~1", "unit": "mg/kg"}
    ]},
    {"compound": "Clc1ccc([C@H]2C[C@@H]3CC[C@H]2N3)cn1", "note": "(relative stereo) [drawing 50]", "values": [
      {"measurement": "ED50", "setting": "[5]", "result": 0.01, "unit": "mg/kg"}
    ]},
    {"compound": "Clc1ccc([C@H]2C[C@@H]3CC[C@H]2N3)cn1", "note": "(relative stereo) [epibatidine, exo-2-(2-chloro-5-pyridyl)-7-azabicyclo[2.2.1]heptane]", "values": [
      {"measurement": "nicotinic cholinergic receptor activity", "setting": "[6]", "result": "nicotinic cholinergic receptor agonist"},
      {"measurement": "effect of naloxone on Straub-tail response", "setting": "[7]", "result": "not reversed by the opiate antagonist naloxone"},
      {"measurement": "affinity for opiate receptors", "setting": "[8]", "result": "negligible affinity"}
    ]},
    {"compound": "O=c1cccc2n1C[C@@H]1CNC[C@H]2C1", "note": "[[^3 H](-)-Cytisine]", "values": [
      {"measurement": "affinity for a4b2 subtype receptor", "setting": "[9]", "result": "high affinity"}
    ]},
    {"compound": "Clc1ccc([C@@H]2C[C@H]3CC[C@@H]2N3)cn1", "note": "[d-epibatidine]", "values": [
      {"measurement": "ED50", "setting": "[5]", "result": "> 0.1", "unit": "mg/kg"}
    ]},
    {"compound": "c1cncc(C2CC3CCC2N3)c1", "note": "(stereo not shown) [drawing 40]", "values": [
      {"measurement": "ED50", "setting": "[4]; [10]", "result": 10, "unit": "mg/kg"}
    ]},
    {"compound": "c1cncc(C2CC3CCC2N3)c1", "note": "(stereo not shown) [drawing 55]", "values": [
      {"measurement": "Inhibition %", "setting": "[1]; testing level 10^-5 M", "result": 104, "unit": "%"},
      {"measurement": "Inhibition %", "setting": "[1]; testing level 10^-9 M", "result": 103, "unit": "%"}
    ]},
    {"compound": "Cc1nnc(C2CC3CCC2N3C)o1", "note": "(stereo not shown) [drawing 60]", "values": [
      {"measurement": "Tail-Flick Assay ED50 % Effect After 5 min.", "setting": "[2]", "result": -2.9, "unit": "%"},
      {"measurement": "Tail-Flick Assay ED50 % Effect After 60 min.", "setting": "[2]", "result": -3.6, "unit": "%"}
    ]},
    {"compound": "Cc1nnc(C2CC3CCC2N3C)o1", "note": "(stereo not shown) [drawing 61]", "values": [
      {"measurement": "Tail-Flick Assay ED50 % Effect After 5 min.", "setting": "[2]", "result": 6.7, "unit": "%"},
      {"measurement": "Tail-Flick Assay ED50 % Effect After 60 min.", "setting": "[2]", "result": 24.6, "unit": "%"}
    ]}
  ]
}
